Experimental data from US7317115B2, “Mandelates salts of substituted tetracyclic tetrahydrofuran derivatives” (Janssen Pharmaceutica, N.V., priority 2001, dated 2008).
Entries after “also recorded” stand apart in the source; their conditions may differ.

Tests used:
Assay type in all cases: physicochemical
[1] = Chemical stability (HPLC and visual inspection after storage); conditions: for HPLC Sum of impurities: in % (unit assumed)
Procedure: In the chemical stability test program the salts are stored for periods of 2, 4 and 8 weeks under different conditions. These conditions are 40° C./75% RH, 50° C., daylight, RT/5% RH, RT/75% RH, 25° C./60% RH and artificial light. The mandelate salt and the ditoluoyltartrate salt are also stored 8 hours in 0.3 da ICH light. The compounds are analyzed after storage by HPLC and by visual inspection.

[2] = Adsorption and desorption of water; conditions: 25° C., different relative humidity; listed as tartrate salt
Procedure: The adsorption and desorption of water at 25° C. at different conditions of relative humidity is investigated on an amount of ±10 mg of each salt. The weight change as a function of relative humidity is registered.

[3] = Crystallographic stability (TGA, DSC, IR after storage); as to IR: key: ~Ref: identical with reference
Procedure: The stability of the crystal structure of the salt is studied after storage of the compounds for a period of two weeks at room temperature (RT) under either 5%, 75% and 25° C./60% relative humidity (RH). The samples are analyzed with thermogravimetry (TGA), differential scanning calorimetry (DSC) and infrared spectroscopy (IR).

In the case of “B-(2α,3aα,12bβ)-11-fluoro-3,3a,8,12b-tetrahydro-N-methyl-2H-dibenzo-[3,4:6,7]cyclohepta[1,2-b]furan-2 methanamine [Tartrate]”, the Appearance ([1]; 25° C./60% RH, 4 weeks) was “white”, the “HPLC Sum of impurities” value ([1]; 25° C./60% RH, 4 weeks) was 0.75 and the Appearance ([1]; 25° C./60% RH, 8 weeks) was “white”. The “HPLC Sum of impurities” value ([1]; 25° C./60% RH, 8 weeks) was 0.77, the Appearance ([1]; 40° C./75% RH, 2 weeks) was “white” and the “HPLC Sum of impurities” value ([1]; 40° C./75% RH, 2 weeks) was 0.72. For the same substance, the Appearance ([1]; 40° C./75% RH, 4 weeks) was “white”, the “HPLC Sum of impurities” value ([1]; 40° C./75% RH, 4 weeks) was 0.83 and the Appearance ([1]; 40° C./75% RH, 8 weeks) was “almost white”. The “HPLC Sum of impurities” value ([1]; 40° C./75% RH, 8 weeks) was 0.93, the Appearance ([1]; 50° C., 2 weeks) was “white” and the “HPLC Sum of impurities” value ([1]; 50° C., 2 weeks) was 0.72. For the same substance, the Appearance ([1]; 50° C., 4 weeks) was “white”, the “HPLC Sum of impurities” value ([1]; 50° C., 4 weeks) was 0.77 and the Appearance ([1]; 50° C., 8 weeks) was “almost white”. For the same substance, the “HPLC Sum of impurities” value ([1]; 50° C., 8 weeks) was 0.79, the Appearance ([1]; Artificial light (2 weeks)) was “white” and the “HPLC Sum of impurities” value ([1]; Artificial light (2 weeks)) was 0.79. The Appearance ([1]; Daylight, 2 weeks) was “white”, the “HPLC Sum of impurities” value ([1]; Daylight, 2 weeks) was 0.75 and the Appearance ([1]; Daylight, 4 weeks) was “almost”. The “HPLC Sum of impurities” value ([1]; Daylight, 4 weeks) was 0.85, the Appearance ([1]; Daylight, 8 weeks) was “slightly” and the “HPLC Sum of impurities” value ([1]; Daylight, 8 weeks) was 0.91. For the same substance, the Appearance ([1]; RT/75% RH, 4 weeks) was “white”, the “HPLC Sum of impurities” value ([1]; RT/75% RH, 4 weeks) was 0.72 and the Appearance ([1]; RT/75% RH, 8 weeks) was “white”. The “HPLC Sum of impurities” value ([1]; RT/75% RH, 8 weeks) was 0.80, the Appearance ([1]; RT/<5% RH, 4 weeks) was “white” and the “HPLC Sum of impurities” value ([1]; RT/<5% RH, 4 weeks) was 0.73. For the same substance, the Appearance ([1]; RT/<5% RH, 8 weeks) was “white”, the “HPLC Sum of impurities” value ([1]; RT/<5% RH, 8 weeks) was 0.75 and the Appearance ([1]; Reference (2 weeks)) was “white”. The “HPLC Sum of impurities” value ([1]; Reference (2 weeks)) was 0.72, the chemical stability ([1]; storage 2, 4 and 8 weeks under different conditions, listed as tartrate salt) was “showed a sensitivity towards 40° C./70% RH and light; also recorded: shows sensitivity towards higher humidities and light” and the “water adsorption/desorption behaviour (weight change as a function of relative humidity)” value [2] was “less stable but the weight change as a function of the relative humidity is very small; also recorded: good adsorption desorption profile”. For the same substance, the Appearance ([3]; 0 days) was “white”, the “DSC Max” value ([3]; 0 days) was 158.8 °C and the “DSC ΔH” value ([3]; 0 days) was 85.9 J/g. The TGA <100° C. ([3]; 0 days) was 0%, the crystallographic stability ([3]; storage two weeks under different relative humidities, listed as tartrate salt) was “crystallographic stable; also recorded: crystallographically stable” and the Appearance ([3]; two weeks, RT/56% RH) was “white”. The “DSC Max” value ([3]; two weeks, RT/56% RH) was 159.0 °C, the “DSC ΔH” value ([3]; two weeks, RT/56% RH) was 86.2 J/g and the IR ([3]; two weeks, RT/56% RH) was “~Ref”. The TGA <100° C. ([3]; two weeks, RT/56% RH) was 0.1%, the Appearance ([3]; two weeks, RT/75% RH) was “white” and the “DSC Max” value ([3]; two weeks, RT/75% RH) was 159.0 °C. The “DSC ΔH” value ([3]; two weeks, RT/75% RH) was 85.5 J/g, the TGA <100° C. ([3]; two weeks, RT/75% RH) was 0% and the Appearance ([3]; two weeks, RT/<5% RH) was “white”. For the same substance, the “DSC Max” value ([3]; two weeks, RT/<5% RH) was 160.3 °C, the “DSC ΔH” value ([3]; two weeks, RT/<5% RH) was 86.4 J/g and the TGA <100° C. ([3]; two weeks, RT/<5% RH) was 0%.
